Results published in US20150164762A1, “USE OF ETHANOLAMINE PHOSPHATE” (priority 2012, published 2015).

Test system: BEAS-2B
Experiment: Comprehensive gene expression analysis with Whole Human Genome DNA microarray after EP treatment
Assay type: cell-based
Protocol: Cells of the established normal human airway epithelial cell line BEAS-2B were used in the experiment. These cells were expansively cultured in 10% FBS RPMI-1640, and seeded at a density of 1×10^5/cm^2 on a 24-well plate. After 24 hours 0.1% FBS RPMI-1640 was substituted, and EP was administered to a final concentration of 0 or 1 mM (n=4). After 24 hours, the cells were used as the DNA microarray samples. RNA was extracted using a QIAGEN RNeasy Mini Kit. The DNA microarray test was performed using a Whole Human Genome DNA microarray 4×44K (Agilent), and the necessary labeling reagents and the like for the DNA microarray test were all from Agilent. The DNA microarray test data were analyzed statistically with GeneSpring (Agilent) dedicated analysis software, and gene function analysis (Gene Ontology (GO) analysis) was performed based on differential expression. The purpose of the GO analysis is to determine stochastically the degree to which gene sets with statistically significant differential expression correspond to known functional classification gene sets. […] The p-value is calculated according to the following formula.

[1] = probe A_23_P1361, NM_002860, EP vs control
[2] = probe A_23_P5392, 1 mM EP, 24 h
[3] = probe A_23_P8961, NM_000880, EP vs control
[4] = probe A_23_P15247, 1 mM EP, 24 h
[5] = probe A_23_P16523, NM_004864, EP vs control
[6] = probe A_23_P21134, 1 mM EP, 24 h
[7] = probe A_23_P23960, 1 mM EP, 24 h
[8] = probe A_23_P25354, 1 mM EP, 24 h
[9] = probe A_23_P28625, 1 mM EP, 24 h

SMILES: NCCOP(=O)(O)O [EP, Ethanolamine phosphate]
- R*: Ratio to control (P2RX7, probe A_23_P25354): 0.561 times
- log2 [ratio] (P2RX7, probe A_23_P25354): −0.834
- R*: Ratio to control (P2RX7, probe A_24_P319113): 0.586 times
- log2 [ratio] (P2RX7, probe A_24_P319113): −0.772
- R*: Ratio to control (PERP, probe A_23_P214950): 0.521 times
- log2 [ratio] (PERP, probe A_23_P214950): −0.941
- R*: Ratio to control (PHLDA3, probe A_23_P62959): 0.271 times
- log2 [ratio] (PHLDA3, probe A_23_P62959): −1.884
- R*: Ratio to control (PLK1, probe A_23_P118174): 2.447 times
- log2 [ratio] (PLK1, probe A_23_P118174): 1.291
- R*: Ratio to control (PLK1, probe A_24_P313504): 1.939 times
- log2 [ratio] (PLK1, probe A_24_P313504): 0.955
- R*: Ratio to control (PMAIP1, probe A_23_P207999): 0.344 times
- log2 [ratio] (PMAIP1, probe A_23_P207999): −1.540
- R*: Ratio to control (PML, probe A_23_P358944): 0.586 times
- log2 [ratio] (PML, probe A_23_P358944): −0.770
- R*: Ratio to control (PPAP2B, probe A_23_P201808): 1.919 times
- log2 [ratio] (PPAP2B, probe A_23_P201808): 0.941
- R*: Ratio to control (ROBO4, probe A_23_P104881): 1.785 times
- log2 [ratio] (ROBO4, probe A_23_P104881): 0.836
- R*: Ratio to control (ROBO4, probe A_23_P344421): 1.633 times
- log2 [ratio] (ROBO4, probe A_23_P344421): 0.707
- R*: Ratio to control (RTN4, probe A_23_P56933): 1.510 times
- log2 [ratio] (RTN4, probe A_23_P56933): 0.594
- R*: Ratio to control (SEMA4D, probe A_24_P261169): 0.558 times
- log2 [ratio] (SEMA4D, probe A_24_P261169): −0.842
- R*: Ratio to control (SEPT4, probe A_23_P207003): 0.503 times
- log2 [ratio] (SEPT4, probe A_23_P207003): −0.990
- R*: Ratio to control (SKP2, probe A_23_P156310): 1.531 times
- log2 [ratio] (SKP2, probe A_23_P156310): 0.615
- R*: Ratio to control (SOX7, probe A_23_P169738): 0.362 times
- log2 [ratio] (SOX7, probe A_23_P169738): −1.464
- R*: Ratio to control (SOX7, probe A_23_P306987): 0.338 times
- log2 [ratio] (SOX7, probe A_23_P306987): −1.566
- R*: Ratio to control (SOX7, probe A_24_P226782): 0.607 times
- log2 [ratio] (SOX7, probe A_24_P226782): −0.720
- R*: Ratio to control (SST, probe A_23_P252817): 0.666 times
- log2 [ratio] (SST, probe A_23_P252817): −0.587
- R*: Ratio to control (TACSTD2, probe A_23_P149529): 1.507 times
- log2 [ratio] (TACSTD2, probe A_23_P149529): 0.591
- R*: Ratio to control (TGFBR2, probe A_23_P211957): 1.634 times
- log2 [ratio] (TGFBR2, probe A_23_P211957): 0.708
- R*: Ratio to control (TGFBR2, probe A_23_P337242): 1.630 times
- log2 [ratio] (TGFBR2, probe A_23_P337242): 0.705
- R*: Ratio to control (TNFRSF17, probe A_23_P37736): 2.525 times
- log2 [ratio] (TNFRSF17, probe A_23_P37736): 1.336
- R*: Ratio to control (VEGFC, probe A_23_P167096): 1.637 times
- log2 [ratio] (VEGFC, probe A_23_P167096): 0.711
- R*: Ratio to control (WARS2, probe A_23_P74380): 1.594 times
- log2 [ratio] (WARS2, probe A_23_P74380): 0.673
- R*: Ratio to control (WDR12, probe A_23_P28625): 1.676 times
- log2 [ratio] (WDR12, probe A_23_P28625): 0.745
- R*: Ratio to control (ZFPM2, probe A_23_P168909): 1.678 times
- log2 [ratio] (ZFPM2, probe A_23_P168909): 0.746
- ALDH18A1 gene expression, R* ratio to control [1]: 1.460 times
- ALDH18A1 gene expression, log2 [ratio] [1]: 0.546
- TP53I3 expression R*: Ratio to control [2]: 0.423 times
- TP53I3 expression log2 [ratio] [2]: −1.241
- IL7 gene expression, R* ratio to control [3]: 0.103 times
- IL7 gene expression, log2 [ratio] [3]: −3.273
- C16orf5 expression R*: Ratio to control [4]: 0.519 times
- C16orf5 expression log2 [ratio] [4]: −0.947
- GDF15 gene expression, R* ratio to control [5]: 0.104 times
- GDF15 gene expression, log2 [ratio] [5]: −3.265
- DDIT3 expression R*: Ratio to control [6]: 0.210 times
- DDIT3 expression log2 [ratio] [6]: −2.249
- BLOC1S2 expression R*: Ratio to control [7]: 0.398 times
- BLOC1S2 expression log2 [ratio] [7]: −1.336
- P2RX7 expression R: Ratio to control [8]: 0.661 times
- P2RX7 expression log2 [ratio] [8]: −0.834
- WDR12 expression R*: Ratio to control [9]: 1.676 times
- WDR12 expression log2 [ratio] [9]: 0.745
- BDH1 gene expression, R* ratio to control (probe A_23_P29754, NM_203314, EP vs control): 1.462 times
